Test results: patent publication US10695275B2, “Anti-aging composition” (NEOPHARM CO., LTD., priority 2016, dated 2020)

Tests used:
Type in all cases: cell-based
[1] = tested on: human fibroblasts; assay: type-1 collagen synthesis in human fibroblasts (PICP EIA kit); conditions: 24 hours
Protocol: N-(2-hydroxyethyl)octanamide was added to a culture medium of human fibroblasts (DMEM medium, 10% fetal bovine serum, 1% antibiotics) to confirm the effect of accelerating type-1 collagen synthesis in a cell level. The measurement of the synthesized collagen was qualified using a procollagen type I C-peptide enzyme immunoassay kit (PICP EIA kit).
The human fibroblast culture medium was used to aliquot the human-derived fibroblasts (human fibroblasts) into 6 wells at 2×10^5 cell/well. After cell adhesion was confirmed, the culture medium was treated with 2 ml of N-(2-hydroxyethyl)octanamide as an effective component (anti-aging composition) per each well, at a concentration of 20 uM. After the culture medium was cultured in an incubator under a condition of 37° C. and 5% CO2 for 24 hours, type-1 collagen which is related to a wrinkle forming factor was measured in a cell extract. Here, the concentration of the anti-aging composition is within a range being not toxic and not deriving cell proliferation, when treating human-derived fibroblasts. […]
The effect of accelerating type-1 collagen synthesis was confirmed in the same manner as in Example 1, except that the effective component was not used (a negative control). In addition, type-1 collagen synthesis ability relative to the negative control was calculated as a ratio, and represented by a rate of increase. […]

[2] = tested on: Artificial skin (EpiDermFT); assay: collagen fiber staining (Masson's Trichrome) in artificial skin; conditions: 0.1%, 100 μl applied on the surface, 24 hours
Text: When photo-aging of the skin proceeds by ultraviolet rays, a collagen fiber network in an epidermis-dermis junction is damaged. Thus, the amount and form of collagen fiber is used as an indicator of skin photo-aging. The skin tissue of a hairless mouse which was irradiated with ultraviolet rays after N-(2-hydroxyethyl)octanamide was applied, was stained with Masson's Trichrome, observed using an optical microscope (IX71, Olympus, JPN), and then photographed using a digital camera (DP71, Olympus, JPN).
Artificial skin (EpiDermFT™ from MatTek, Ashland, USA) was purchased, and stabilized in an exclusive medium (EFT-400) for 18 hours. On the surface of the artificial skin, 100 μl of N-(2-hydroxyethyl)octanamide as an effective component (anti-aging composition) at a concentration of 0.1% was applied. After 24 hours, the artificial skin tissue was immobilized with 10% formaldehyde, and embedded with paraffin, and a tissue sliced at 5 μm was stained with Masson's Trichrome (M&T), thereby observing a staining degree of collagen fiber. The results were illustrated in the following FIG. 2.

[3] = tested on: human-derived fibroblasts; assay: toxicity / cell proliferation in human-derived fibroblasts; conditions: concentration of 20 uM

`CCCCCCCC(=O)NCCO` [Example 1, N-(2-hydroxyethyl)octanamide] was tested, and the “Rate of increase (%) of type-1 collagen synthesis relative to negative control” value ([1]; 20 uM, ratio to Comparative Example 1 (non-treated)) was 750%, the “type-1 collagen concentration (20 uM)” value ([1]; human fibroblasts treated at 20 uM, measured in cell extract) was 0.015 and the “staining degree of collagen fiber (aniline blue) in the dermal layer under the epidermis” value [2] was “strongly stained”. The “toxicity to human-derived fibroblasts” value [3] was “not toxic”.
